Assays:
[1] = in vivo; cited from earlier work
[2] = target: T1, LHRH receptors (rat pituitary membranes) (Rattus norvegicus, UniProt P30969); experiment: LHRH radioligand receptor binding assay; settings: radioiodinated [D-Leu6-des Gly10]-LHRH ethyl amide 50 pM, 2 hours at 4° C., read-out: LHRH RECEPTOR BINDING AFFINITY KI
T1 construct: Pituitary membranes containing LHRH receptors are prepared in batches from quick-frozen rat pituitaries; tissue Hilltop Labs; host or cells: rat pituitary membranes
T1 sequence (P30969 1-327): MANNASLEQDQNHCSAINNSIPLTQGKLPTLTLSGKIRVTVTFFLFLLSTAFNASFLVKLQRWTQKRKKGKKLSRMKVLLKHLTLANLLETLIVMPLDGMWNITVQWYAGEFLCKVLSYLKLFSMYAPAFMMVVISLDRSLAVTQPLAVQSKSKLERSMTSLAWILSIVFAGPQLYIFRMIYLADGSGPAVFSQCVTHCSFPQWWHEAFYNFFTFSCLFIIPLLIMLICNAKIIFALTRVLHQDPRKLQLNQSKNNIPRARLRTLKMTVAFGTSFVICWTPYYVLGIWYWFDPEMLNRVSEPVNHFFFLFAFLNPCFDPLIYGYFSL
Experimental: Receptor Binding. A radioligand receptor binding assay is performed in a similar way to that described in the literature (J. Marion et al., Mol. Pharmacol. 19 399 (1981)). [D-Leu^6 -des Gly^10 ]-LHRH ethyl amide was radioiodinated by the chloramine-T method and used as the radioligand. Pituitary membranes containing LHRH receptors are prepared in batches from quick-frozen rat pituitaries obtained from Hilltop Labs. The radioligand (50 pM), receptors, and compounds to be tested are coincubated for 2 hours at 4° C. Bound ligand is separated from free ligand via centrifugation and aspiration. Compounds are tested at six half-log concentration increments, and the equilibrium dissociation constant (KI) is calculated from the concentration which displaces 50% of specifically bound radioligand.

serum testosterone = settings: given orally to patients, 200 to 1200 mg daily; cited from earlier work

| SMILES | bioavailable from the duodenum [1] | Ki [2] [nM] | suppression of serum testosterone (serum testosterone) |
| --- | --- | --- | --- |
| CCNC(=O)[C@@H]1CCCN1C(=O)[C@H](CCCNC(=N)N)NC(=O)[C@H](CC(C)C)NC(=O)[C@@H](CC(C)C)NC(=O)[C@H](Cc1ccc(O)cc1)NC(=O)[C@H](CO)NC(=O)[C@H](Cc1c[nH]c2ccccc12)NC(=O)[C@H](Cc1c[nH]cn1)NC(=O)[C@@H]1CCC(=O)N1 [leuprolide] | less than 1% | – | – |
| CC(=O)N1CCN(c2ccc(OCC3COC(Cn4ccnc4)(c4ccc(Cl)cc4Cl)O3)cc2)CC1 (stereo not drawn) [Ketoconazole] | – | 2000 | dose dependent suppression of serum testosterone |
